Measurements reported in paper PMC13095408, “DBeQ derivative targets vacuolar protein sorting 4 functions in cancer cells and suppresses tumor growth in mice” (The Journal of Pharmacology and Experimental Therapeutics, 2025).

Experiments:
recombinant human VCP = target: T1, recombinant human VCP (Rattus norvegicus, UniProt P46462); experiment: VCP ATPase activity, EnzChek Phosphate assay; type: biochemical
T1 construct: His (N); host or cells: Escherichia coli BL21(DE3)
Protocol: (§1) VPS4B and VCP ATPase activities were measured using the EnzChek Phosphate assay for the quantification of released phosphate. Assay buffers were based on literature precedents ([Cupido et al, 2019], [2021]) as follows: VPS4B buffer (20 mM HEPES-KOH, pH 7.4, 25 mM KOAc, 2 mM MgCl2, 5 mM (NH4)2SO4, 0.5 mM CaCl2, 2.5 mM DTT, 0.1 mg/mL BSA, 0.005% v/v Triton X-100), VCP buffer (20 mM HEPES-NaOH, pH 7.4, 20 mM NaCl, 10 mM MgCl2, 5 mM (NH4)2SO4, 0.5 mM CaCl2, 2.5 mM DTT, 0.1 mg/mL BSA, 0.005% v/v Triton X-100). In black clear-bottom 384-well plates, 22.5 μL of 5% DMSO or 40× test compounds diluted in the respective assay buffer was added to each well. ATPases were diluted to 1 μM in the respective buffers containing 2× EnzChek Phosphate assay coupling reagents of 400 μM MESG and 2 U of PNP, then 25 μL was added to each well. Plates were mixed at 1000 rpm for 30 minutes at RT while being protected from light. The reaction was initiated by adding 2.5 μL of 20 mM MgATP or water followed by mixing at 1200 rpm for 30 seconds at RT. Plates were measured at 360 nm using a CLARIOstar plate reader (BMG LABTECH) for 20 minutes at 37 °C. ATPase activity was calculated as the amount of phosphate released over a 5-minute interval under linear initial velocity conditions. The remaining ATPase activity was calculated by normalizing compound-treated activity values to the DMSO control. IC50 was calculated by fitting normalized values to a sigmoidal dose-response curve with Hill slope = −1 using Graph Pad Prism 10.0.
(§2) To identify VPS4i, we developed enzyme- and cell-based VPS4 functional assays to serve as VPS4i-screening platforms. For the enzyme-based assay, we used the colorimetric EnzChek Phosphate assay that detects free phosphate with the advantage of continuous measurement of ATP hydrolysis over time. […] Due to the high sequence and structural similarity of AAA-ATPases, we also established a VCP ATPase assay to evaluate hit selectivity. […] For the cell-based assay, our approach was based on how VPS4 inhibition causes the accumulation of ESCRT-III ([Babst et al, 1998]; [Katoh et al, 2003]). We used an N-terminal GFP-tagged CHMP4B reporter system because it is the most abundant ESCRT-III subunit ([Katoh et al, 2004]; [Teis et al, 2008]). Our aim was to test compounds under short-term serum and amino acid starvation to stimulate ESCRT activity for easier detection of inhibitors ([Takahashi et al, 2018], [2019]). […] Overall, we established 2 systems for VPS4i screening, a VPS4B ATPase activity assay and a GFP-CHMP4B accumulation cell-based assay.

[1] = system: GFP-CHMP4B-expressing U2OS cells; experiment: GFP-CHMP4B accumulation cell-based assay (high-content microscopy)
Protocol: Plates were then scanned using the 20× objective for 1 hour with ≥100 cells/well across 6 fields/well. […] For all other assays, the cells were cultured overnight in black glass-bottom 96-well plates (Cellvis; P96-1.5H-N) then stained, rinsed, and treated with SM containing the indicated compounds (0.1% DMSO or 0.1% DMSO/0.1% ethanol [vehicle] final). Plates were scanned using the 20× NA .70 objective at the indicated intervals with ≥ 300 cells/well across 3 fields/well. […]

VPS4B = target: T2, VPS4B (Homo sapiens, UniProt O75351); experiment: VPS4B ATPase activity, EnzChek Phosphate assay; type: biochemical; parameters: His tag (pET28a vector-encoded) (N); made in house; host or cells: Escherichia coli BL21(DE3)
T2 sequence (O75351 1-444): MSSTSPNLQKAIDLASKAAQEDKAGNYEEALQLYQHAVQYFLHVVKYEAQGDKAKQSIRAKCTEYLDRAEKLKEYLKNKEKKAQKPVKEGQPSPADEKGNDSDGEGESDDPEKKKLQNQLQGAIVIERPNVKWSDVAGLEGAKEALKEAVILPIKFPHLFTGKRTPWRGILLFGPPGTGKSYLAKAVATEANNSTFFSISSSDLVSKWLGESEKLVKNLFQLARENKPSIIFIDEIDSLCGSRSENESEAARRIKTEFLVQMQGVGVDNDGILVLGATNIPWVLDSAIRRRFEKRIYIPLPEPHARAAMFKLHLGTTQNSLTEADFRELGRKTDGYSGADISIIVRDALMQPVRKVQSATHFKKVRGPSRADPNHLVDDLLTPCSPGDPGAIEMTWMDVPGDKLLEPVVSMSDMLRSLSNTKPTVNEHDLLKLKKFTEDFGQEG
Protocol: as §1, §2

U2OS cells = experiment: Immunoblot analysis of VPS4- and VCP-mediated pathways (autophagy, ER stress, ERAD); type: cell-based; settings: 0.6 μM CB-5083, 1 μM 4-107, complete media
Protocol: Whole-cell lysates were prepared in radio-immunoprecipitation buffer (25 mM Tris-HCl, pH 8.0, 150 mM NaCl, 1 mM EDTA, 1% v/v IGEPAL CA-630, 0.5% w/v sodium deoxycholate, and 1% v/v SDS) containing protease (1:250) and phosphatase inhibitor cocktails (1:100) then resolved via SDS-PAGE and probed with the indicated antibodies. Signals were acquired with the Odyssey CLx (LI-COR) for fluorescence or Odyssey XF (LI-COR) for chemiluminescence detection and visualized in Image Studio version 6 (LI-COR).
VPS4 is essential for autophagy and loss of VPS4 function inhibits autophagic flux ([Takahashi et al, 2018]; [Zhen et al, 2019]). Meanwhile, VCP is required for endoplasmic reticulum-associated degradation (ERAD; [Rabinovich et al, 2002]) where VCP inhibition results in the accumulation of ubiquitinated proteins and induction of ER stress ([Weihl et al, 2006]; [Bastola et al, 2016]).

[2] = screened at 5 µM, mean ± S.D., Supplemental Table 2
[3] = screened at 1 µM, mean ± S.D., Supplemental Table 2
[4] = screened at 1 μM, starvation media, 1 hour, foci intensity per cell normalized to 4-107, mean ± SD, Table 1
[5] = remaining ATPase activity, screened at 5 μM, mean ± SD, Table 1
[6] = remaining ATPase activity, screened at 5 μM, mean ± SD, Table 2

T1 sequence (P46462 2-806 limits assumed): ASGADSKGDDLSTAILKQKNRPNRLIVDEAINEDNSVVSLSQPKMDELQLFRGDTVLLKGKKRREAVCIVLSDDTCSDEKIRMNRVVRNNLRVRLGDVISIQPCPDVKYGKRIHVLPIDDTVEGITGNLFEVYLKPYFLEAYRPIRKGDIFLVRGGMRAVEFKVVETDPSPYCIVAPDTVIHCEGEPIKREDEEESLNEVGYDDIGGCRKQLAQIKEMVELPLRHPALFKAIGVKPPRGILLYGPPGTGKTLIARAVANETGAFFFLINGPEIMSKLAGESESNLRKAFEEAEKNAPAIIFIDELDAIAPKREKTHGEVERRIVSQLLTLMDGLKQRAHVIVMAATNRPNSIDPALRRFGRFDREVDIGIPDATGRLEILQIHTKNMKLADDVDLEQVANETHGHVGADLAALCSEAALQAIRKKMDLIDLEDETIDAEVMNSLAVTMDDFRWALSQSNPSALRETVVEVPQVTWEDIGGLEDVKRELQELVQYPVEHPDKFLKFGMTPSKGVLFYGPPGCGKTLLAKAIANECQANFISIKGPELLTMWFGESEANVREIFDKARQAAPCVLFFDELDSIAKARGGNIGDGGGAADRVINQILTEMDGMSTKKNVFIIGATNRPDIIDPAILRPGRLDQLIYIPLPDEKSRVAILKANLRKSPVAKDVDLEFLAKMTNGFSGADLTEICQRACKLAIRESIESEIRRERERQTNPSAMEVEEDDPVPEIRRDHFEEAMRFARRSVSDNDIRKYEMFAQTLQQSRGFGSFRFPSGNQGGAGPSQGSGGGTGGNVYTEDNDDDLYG

## COc1cccc2c(NCc3ccc(F)cc3)nc(NCc3ccc(F)cc3)nc12 [Compound 22]
Recombinant human VCP; [2]
  VCP ATPase (% DMSO): 99.33 ± 2.70 % DMSO
[1]; [3]
  GFP-CHMP4B (% 4-107): 51.23 ± 26.20 % 4-107
[1]; [4]
  GFP-CHMP4B (% 4-107): 51.23 ± 26.20 % 4-107
VPS4B; [5]
  VPS4B ATPase (% DMSO): 46.38 ± 2.33 % DMSO
VPS4B; [2]
  VPS4B ATPase (% DMSO): 46.38 ± 2.33 % DMSO

## Cc1cc2c(C(N)=O)cccc2n1-c1nc2c(c(NCc3ccccc3)n1)COCC2 [CB-5083]
U2OS cells
  accumulation of K48-linked polyubiquitinated proteins: accumulation of K48-linked polyubiquitinated proteins
U2OS cells; 5 μM DBeQ
  ER stress (HSPA5, ATF4): strongly induced ER stress
  autophagy (SQSTM1, LC3-II): reduction in SQSTM1, indicating the stimulation of autophagy

## COc1ccc(CNc2nc(NCc3ccc(OC)cc3)c3cccc(OC)c3n2)cc1 [Compound 21]
Recombinant human VCP; [2]
  VCP ATPase (% DMSO): 100.96 ± 0.28 % DMSO
[1]; [3]
  GFP-CHMP4B (% 4-107): 37.69 ± 13.03 % 4-107
[1]; [4]
  GFP-CHMP4B (% 4-107): 37.69 ± 13.03 % 4-107
VPS4B; [5]
  VPS4B ATPase (% DMSO): 33.98 ± 3.50 % DMSO
VPS4B; [2]
  VPS4B ATPase (% DMSO): 33.98 ± 3.50 % DMSO

## COc1cccc2c(NCc3ccccc3)nc(NCc3ccc(C#N)cc3)nc12 [Compound 7-05]
Recombinant human VCP; [2]
  VCP ATPase (% DMSO): 95.43 ± 0.86 % DMSO
[1]; [3]
  GFP-CHMP4B (% 4-107): 42.59 ± 0.15 % 4-107
VPS4B; [2]
  VPS4B ATPase (% DMSO): 54.50 ± 2.02 % DMSO

## COc1cccc2c(NCc3ccccc3)nc(NCc3ccc(F)cc3)nc12 [Compound 5-151]
Recombinant human VCP; [2]
  VCP ATPase (% DMSO): 93.82 ± 0.90 % DMSO
[1]; [3]
  GFP-CHMP4B (% 4-107): 73.02 ± 27.67 % 4-107
VPS4B; [2]
  VPS4B ATPase (% DMSO): 47.66 ± 0.34 % DMSO

## COc1ccc2c(NCc3ccccc3)nc(NCc3ccccc3)nc2c1 [Compound 6]
Recombinant human VCP; [2]
  VCP ATPase (% DMSO): 86.15 ± 0.65 % DMSO
[1]; [3]
  GFP-CHMP4B (% 4-107): 33.47 ± 15.62 % 4-107
[1]; [4]
  GFP-CHMP4B (% 4-107): 33.47 ± 15.62 % 4-107
VPS4B; [5]
  VPS4B ATPase (% DMSO): 35.59 ± 2.28 % DMSO
VPS4B; [2]
  VPS4B ATPase (% DMSO): 35.59 ± 2.28 % DMSO

## COc1cccc2c(NCc3ccccc3)nc(NCc3cccc4ccccc34)nc12 [Compound 13]
Recombinant human VCP; [2]
  VCP ATPase (% DMSO): 98.67 ± 2.86 % DMSO
[1]; [3]
  GFP-CHMP4B (% 4-107): 36.79 ± 0.89 % 4-107
[1]; [4]
  GFP-CHMP4B (% 4-107): 36.79 ± 0.89 % 4-107
VPS4B; [5]
  VPS4B ATPase (% DMSO): 28.27 ± 0.04 % DMSO
VPS4B; [2]
  VPS4B ATPase (% DMSO): 28.27 ± 0.04 % DMSO

## COc1cccc2c(NCc3ccccc3)nc(NCc3cccc(C#N)c3)nc12 [Compound 17]
Recombinant human VCP; [6]
  VCP ATPase (% DMSO): 91.83 ± 5.36 % DMSO
Recombinant human VCP; [2]
  VCP ATPase (% DMSO): 91.83 ± 3.79 % DMSO
[1]; [3]
  GFP-CHMP4B (% 4-107): 82.61 ± 11.90 % 4-107
[1]; [4]
  GFP-CHMP4B (% 4-107): 82.61 ± 11.90 % 4-107
VPS4B; [5]
  VPS4B ATPase (% DMSO): 55.59 ± 2.13 % DMSO
VPS4B; [2]
  VPS4B ATPase (% DMSO): 55.59 ± 2.13 % DMSO

## COc1cccc2c(NCc3ccccc3)nc(NCc3ccc(C)cc3)nc12 [Compound 18]
Recombinant human VCP; [6]
  VCP ATPase (% DMSO): 83.40 ± 4.64 % DMSO
Recombinant human VCP; [2]
  VCP ATPase (% DMSO): 83.40 ± 3.28 % DMSO
[1]; [3]
  GFP-CHMP4B (% 4-107): 48.09 ± 1.26 % 4-107
[1]; [4]
  GFP-CHMP4B (% 4-107): 48.09 ± 1.26 % 4-107
VPS4B; [5]
  VPS4B ATPase (% DMSO): 27.55 ± 0.01 % DMSO
VPS4B; [2]
  VPS4B ATPase (% DMSO): 27.55 ± 0.01 % DMSO

## Nc1cccc2c(NCc3ccccc3)nc(NCc3ccccc3)nc12 [Compound 7-31]
Recombinant human VCP; [2]
  VCP ATPase (% DMSO): 69.70 ± 8.05 % DMSO
[1]; [3]
  GFP-CHMP4B (% 4-107): 48.41 ± 2.74 % 4-107

## COc1cccc(CNc2nc(NCc3ccccc3)c3cccc(OC)c3n2)c1 [Compound 5-27-2]
Recombinant human VCP; [2]
  VCP ATPase (% DMSO): 100.03 ± 0.81 % DMSO
[1]; [3]
  GFP-CHMP4B (% 4-107): 71.11 ± 0.37 % 4-107
VPS4B; [2]
  VPS4B ATPase (% DMSO): 51.50 ± 0.83 % DMSO

## COc1ccc(CNc2nc(NCc3ccccc3)c3cccc(OC)c3n2)cc1 [Compound 19]
Recombinant human VCP; [6]
  VCP ATPase (% DMSO): 107.28 ± 2.66 % DMSO
Recombinant human VCP; [2]
  VCP ATPase (% DMSO): 107.28 ± 1.88 % DMSO
[1]; [3]
  GFP-CHMP4B (% 4-107): 86.61 ± 22.39 % 4-107
[1]; [4]
  GFP-CHMP4B (% 4-107): 86.61 ± 22.39 % 4-107
VPS4B; [5]
  VPS4B ATPase (% DMSO): 29.98 ± 0.49 % DMSO
VPS4B; [2]
  VPS4B ATPase (% DMSO): 29.98 ± 0.49 % DMSO

## COc1cccc2c(NCc3ccccc3)nc(N[C@H](C)c3cccc4ccccc34)nc12 [Compound 5-103]
[1]; [3]
  GFP-CHMP4B (% 4-107): 4.36 ± 1.56 % 4-107
VPS4B; [2]
  VPS4B ATPase (% DMSO): 45.60 ± 2.79 % DMSO

## COC(=O)c1cccc(CNc2nc(NCc3ccccc3)c3cccc(OC)c3n2)c1 [Compound 14]
[1]; [3]
  GFP-CHMP4B (% 4-107): 13.39 ± 9.03 % 4-107
[1]; [4]
  GFP-CHMP4B (% 4-107): 13.39 ± 9.03 % 4-107
VPS4B; [5]
  VPS4B ATPase (% DMSO): 42.10 ± 0.26 % DMSO
VPS4B; [2]
  VPS4B ATPase (% DMSO): 42.10 ± 0.26 % DMSO

## COc1cccc2c(NCc3ccccc3)nc(NCc3cccc(F)c3)nc12 [Compound 20]
Recombinant human VCP; [6]
  VCP ATPase (% DMSO): 80.50 ± 0.57 % DMSO
Recombinant human VCP; [2]
  VCP ATPase (% DMSO): 80.50 ± 0.40 % DMSO
[1]; [3]
  GFP-CHMP4B (% 4-107): 99.48 ± 22.3 % 4-107
[1]; [4]
  GFP-CHMP4B (% 4-107): 99.48 ± 22.30 % 4-107
VPS4B; [5]
  VPS4B ATPase (% DMSO): 35.22 ± 0.66 % DMSO
VPS4B; [2]
  VPS4B ATPase (% DMSO): 35.22 ± 0.66 % DMSO
